In patent US9198848B2, “Process for obtaining extracts containing methylxanthine derivatives from cakes of plants of the genus Theobroma, as well as composition and use of said extract” (Natura Cosmeticos S.A., priority 2008, dated 2015):

How the values were obtained:
human fibroblasts = assay: Production of β-endorphin in a culture of human fibroblasts (ELISA); type: cell-based; conditions: 0.038-0.600 μg/mL, 48 hr incubation, FIG. 2
Procedure: To carry out the experiments a cell line (pure/isolated culture) of human fibroblasts, adult age (mature), 6a passage was used.
The cells were cultured on appropriate culture plates (24 well) in specific medium culture, containing supplements required for cell maintenance and proliferation. For that purpose, 1×10^5 cells/well were seeded, confluence being reached after a 48 hour incubation, in a wet stove, 5% CO2, 37° C.
Subsequent to confluence (approximately 80% of the total area), the samples to be assessed were added, at the appropriate concentrations and previously established, according to table 1, always keeping a group as CONTROL (with no treatment), for comparative purposes in assessing effectiveness. The samples were previously diluted in proper culture medium.
(§1) After 48 hour incubation (wet stove, 5% CO2, 37° C.) with the samples, the supernatant of cell cultures were collected for assessing the beta-endorphin release. The possible citotoxicity of the compound was also assessed and taken into account. Assessment was qualitative only, by analysis of morphology and cell characteristics.
Quantification of the production of beta-endorphin by the cells in culture was carried out by the immunoenzymatic method ELISA (Enzyme-Linked Immunosorbent Assay), using a kit appropriate for determining beta-endorphin in biological samples. The samples were assessed in quadruplicate.

human keratinocytes = assay: Production of β-endorphin in a culture of human keratinocytes (ELISA); type: cell-based; conditions: 0.038-0.600 μg/mL, 48 hr incubation, FIG. 3
Procedure: To carry out the experiments a cell line (pure/isolated culture) of human keranoticytes, adult age (mature), 7th passage was used.
The cells were cultured on appropriate culture plates (24 well) in specific medium culture, containing supplements required for cell maintenance and proliferation. For that purpose, 1×10^5 cells/well were seeded, confluence being reached after 72 hour incubation, in a wet stove, 5% CO2, 37° C.
Subsequent to confluence (approximately 80% of the total area), the samples to be assessed were added, at the appropriate concentrations and previously established, according to table 2, always keeping a group as CONTROL (with no treatment), for comparative purposes in assessing effectiveness. The samples were previously diluted in proper culture medium.
as §1
Quantification of the production of beta-endorphin by the cells in culture was carried out by the immunoenzymatic method ELISA (Enzyme-Linked immunosorbent Assay), using a kit appropriate for determining de beta-endorphin in biological samples. The samples were assessed in quadruplicate.

bovine fosfodiesterase = conditions: in vitro bovine fosfodiesterase; theobromine versus caffeine; cited from earlier work
[1] = tested on: UVA light-induced wrinkles; conditions: topical; 10 mM; UVA 13.0 J/cm^2; 15-week study; cited from earlier work
adipocytes = conditions: ex vivo adipocytes; caffeine versus theobromine; lypolisis rate by intracelullar glycerol; cited from earlier work

Structure (SMILES) | production of β-endorphin compared with TC150905MX at the same concentration (human fibroblasts) | production of β-endorphin compared with TC150905MX at the same concentration (human keratinocytes) | power in the ability of increasing AMPc (fosfodiesterase inhibition) (bovine fosfodiesterase) | prevention of UVA light-induced wrinkles [1] | power on noradrenaline-induced lypolisis (adipocytes)
Cn1c(=O)c2c(ncn2C)n(C)c1=O [caffeine] | higher production of β-endorphin | higher production of β-endorphin | identical | effective | equivalent power
Cn1cnc2c1c(=O)[nH]c(=O)n2C [theobromine] | – | – | identical | – | –
